Measured values reported in ChEMBL document CHEMBL1201861, “Genomics of Drug Sensitity in Cancer screening data, Wellcome Trust Sanger Institute”.

Key:
Assay in all cases: cells
CAS-1 = type: functional, cell-based, Homo sapiens; conditions: Homo sapiens, CAS-1
Description: SANGER: Inhibition of human CAS-1 cell growth in a cell viability assay.

697 = type: functional, cell-based, Homo sapiens; conditions: Homo sapiens
Description: SANGER: Inhibition of human 697 cell growth in a cell viability assay.

SW872 = type: functional, cell-based, Homo sapiens; conditions: Homo sapiens, SW872
Description: SANGER: Inhibition of human SW872 cell growth in a cell viability assay.

KM12 = type: functional, cell-based, Homo sapiens; conditions: Homo sapiens, KM12
Description: SANGER: Inhibition of human KM12 cell growth in a cell viability assay.

KM-H2 = type: functional, cell-based, Homo sapiens; conditions: Homo sapiens, KM-H2
Description: SANGER: Inhibition of human KM-H2 cell growth in a cell viability assay.

D-502MG = type: functional, cell-based, Homo sapiens; conditions: Homo sapiens, D-502MG
Description: SANGER: Inhibition of human D-502MG cell growth in a cell viability assay.

KARPAS-299 = type: functional, cell-based, Homo sapiens; conditions: Homo sapiens, KARPAS-299
Description: SANGER: Inhibition of human KARPAS-299 cell growth in a cell viability assay.

LS-513 = type: functional, cell-based, Homo sapiens; conditions: Homo sapiens, LS-513
Description: SANGER: Inhibition of human LS-513 cell growth in a cell viability assay.

KGN = type: functional, cell-based, Homo sapiens; conditions: Homo sapiens, KGN
Description: SANGER: Inhibition of human KGN cell growth in a cell viability assay.

KARPAS-45 = type: functional, cell-based, Homo sapiens; conditions: Homo sapiens, KARPAS-45
Description: SANGER: Inhibition of human KARPAS-45 cell growth in a cell viability assay.

SK-UT-1 = type: functional, cell-based, Homo sapiens; conditions: Homo sapiens, SK-UT-1
Description: SANGER: Inhibition of human SK-UT-1 cell growth in a cell viability assay.

SW982 = type: functional, cell-based; conditions: Homo sapiens
Description: SANGER: Inhibition of human SW982 cell growth in a cell viability assay.

HCC2157 = type: functional, cell-based, Homo sapiens; conditions: Homo sapiens, HCC2157
Description: SANGER: Inhibition of human HCC2157 cell growth in a cell viability assay.

TE-5 = type: functional, cell-based, Homo sapiens; conditions: Homo sapiens, TE-5
Description: SANGER: Inhibition of human TE-5 cell growth in a cell viability assay.

SNU1 = type: functional, cell-based, Homo sapiens; conditions: Homo sapiens, SNU1
Description: SANGER: Inhibition of human NCI-SNU-1 cell growth in a cell viability assay.

NEC8 = type: functional, cell-based, Homo sapiens; conditions: Homo sapiens, NEC8
Description: SANGER: Inhibition of human NEC8 cell growth in a cell viability assay.

SF-539 = type: functional, cell-based, Homo sapiens; conditions: Homo sapiens, SF-539
Description: SANGER: Inhibition of human SF539 cell growth in a cell viability assay.

CCRF-CEM = type: functional, cell-based, Homo sapiens; conditions: Homo sapiens, CCRF-CEM
Description: SANGER: Inhibition of human CCRF-CEM cell growth in a cell viability assay.

MFM-223 = type: functional, cell-based, Homo sapiens; conditions: Homo sapiens, MFM-223
Description: SANGER: Inhibition of human MFM-223 cell growth in a cell viability assay.

KU812 cell line = type: functional, cell-based, Homo sapiens; conditions: Homo sapiens, KU812
Description: SANGER: Inhibition of human KU812 cell growth in a cell viability assay.

SK-N-FI = type: functional, cell-based, Homo sapiens; conditions: Homo sapiens, SK-N-FI
Description: SANGER: Inhibition of human SK-N-FI cell growth in a cell viability assay.

SHP77 = type: functional, cell-based, Homo sapiens, SHP-77; conditions: Homo sapiens, SHP77
Description: SANGER: Inhibition of human SHP-77 cell growth in a cell viability assay.

EOL1 = type: functional, cell-based, Homo sapiens; conditions: Homo sapiens, EOL1
Description: SANGER: Inhibition of human EoL-1-cell cell growth in a cell viability assay.

HCE-T = type: functional, cell-based, Homo sapiens; conditions: Homo sapiens, HCE-T
Description: SANGER: Inhibition of human HCE-T cell growth in a cell viability assay.

ATN-1 = type: functional, cell-based, Homo sapiens; conditions: Homo sapiens, ATN-1
Description: SANGER: Inhibition of human ATN-1 cell growth in a cell viability assay.

EW-16 = type: functional, cell-based, Homo sapiens; conditions: Homo sapiens, EW-16
Description: SANGER: Inhibition of human EW-16 cell growth in a cell viability assay.

DEL = type: functional, cell-based, Homo sapiens; conditions: Homo sapiens, DEL
Description: SANGER: Inhibition of human DEL cell growth in a cell viability assay.

LB831-BLC = type: functional, cell-based, Homo sapiens; conditions: Homo sapiens, LB831-BLC
Description: SANGER: Inhibition of human LB831-BLC cell growth in a cell viability assay.

NCI-H2171 = type: functional, cell-based, Homo sapiens; conditions: Homo sapiens, NCI-H2171
Description: SANGER: Inhibition of human NCI-H2171 cell growth in a cell viability assay.

KNS-42 = type: functional, cell-based; conditions: Homo sapiens
Description: SANGER: Inhibition of human KNS-42 cell growth in a cell viability assay.

NCI-H1417 = type: functional, cell-based, Homo sapiens; conditions: Homo sapiens, NCI-H1417
Description: SANGER: Inhibition of human NCI-H1417 cell growth in a cell viability assay.

COLO-684 = type: functional, cell-based, Homo sapiens; conditions: Homo sapiens, COLO-684
Description: SANGER: Inhibition of human COLO-684 cell growth in a cell viability assay.

L-428 = type: functional, cell-based, Homo sapiens; conditions: Homo sapiens, L-428
Description: SANGER: Inhibition of human L-428 cell growth in a cell viability assay.

SK-MEL-1 = type: functional, cell-based, Homo sapiens; conditions: Homo sapiens, SK-MEL-1
Description: SANGER: Inhibition of human SK-MEL-1 cell growth in a cell viability assay.

LB996-RCC = type: functional, cell-based, Homo sapiens; conditions: Homo sapiens, LB996-RCC
Description: SANGER: Inhibition of human LB996-RCC cell growth in a cell viability assay.

RPMI-8866 = type: functional, cell-based, Homo sapiens; conditions: Homo sapiens, RPMI-8866
Description: SANGER: Inhibition of human RPMI-8866 cell growth in a cell viability assay.

MZ7-mel = type: functional, cell-based, Homo sapiens; conditions: Homo sapiens, MZ7-mel
Description: SANGER: Inhibition of human MZ7-mel cell growth in a cell viability assay.

ES8 = type: functional, cell-based, Homo sapiens; conditions: Homo sapiens, ES8
Description: SANGER: Inhibition of human ES8 cell growth in a cell viability assay.

Mo = type: functional, cell-based, Homo sapiens; conditions: Homo sapiens, Mo
Description: SANGER: Inhibition of human Mo-T cell growth in a cell viability assay.

KLE = type: functional, cell-based; conditions: Homo sapiens
Description: SANGER: Inhibition of human KLE cell growth in a cell viability assay.

COLO-829 = type: functional, cell-based, Homo sapiens; conditions: Homo sapiens, COLO-829
Description: SANGER: Inhibition of human COLO-829 cell growth in a cell viability assay.

J-RT3-T3-5 = type: functional, cell-based, Homo sapiens; conditions: Homo sapiens, J-RT3-T3-5
Description: SANGER: Inhibition of human J-RT3-T3-5 cell growth in a cell viability assay.

GB-1 = type: functional, cell-based, Homo sapiens; conditions: Homo sapiens, GB-1
Description: SANGER: Inhibition of human GB-1 cell growth in a cell viability assay.

HCC2218 = type: functional, cell-based, Homo sapiens; conditions: Homo sapiens, HCC2218
Description: SANGER: Inhibition of human HCC2218 cell growth in a cell viability assay.

NCI-H1304 = type: functional, cell-based, Homo sapiens; conditions: Homo sapiens, NCI-H1304
Description: SANGER: Inhibition of human NCI-H1304 cell growth in a cell viability assay.

SCC-15 = type: functional, cell-based, Homo sapiens; conditions: Homo sapiens, SCC-15
Description: SANGER: Inhibition of human SCC-15 cell growth in a cell viability assay.

LB2241-RCC = type: functional, cell-based, Homo sapiens; conditions: Homo sapiens, LB2241-RCC
Description: SANGER: Inhibition of human LB2241-RCC cell growth in a cell viability assay.

OVCAR-4 = type: functional, cell-based, Homo sapiens; conditions: Homo sapiens, OVCAR-4
Description: SANGER: Inhibition of human OVCAR-4 cell growth in a cell viability assay.

SNU-C2B = type: functional, cell-based; conditions: Homo sapiens
Description: SANGER: Inhibition of human SNU-C2B cell growth in a cell viability assay.

TGBC1TKB = type: functional, cell-based, Homo sapiens; conditions: Homo sapiens, TGBC1TKB
Description: SANGER: Inhibition of human TGBC1TKB cell growth in a cell viability assay.

## COc1ccc(-c2cc3nccn3c(Nc3ncccc3C(N)=O)n2)cc1OC
CAS-1
  IC50: 4.5 µM
697
  IC50: 0.582 µM
SW872
  IC50: 1.18 µM
KM12
  IC50: 2.69 µM
KM-H2
  IC50: > 8 µM
D-502MG
  IC50: > 8 µM
KARPAS-299
  IC50: > 8 µM
LS-513
  IC50: > 8 µM
KGN
  IC50: 1.54 µM
KARPAS-45
  IC50: 1.9 µM
SK-UT-1
  IC50: 6.24 µM
SW982
  IC50: 0.775 µM
HCC2157
  IC50: > 8 µM
TE-5
  IC50: 5.54 µM
SNU1
  IC50: 1.99 µM
NEC8
  IC50: 7.77 µM
SF-539
  IC50: > 8 µM
CCRF-CEM
  IC50: 1.98 µM
MFM-223
  IC50: > 8 µM
KU812 cell line
  IC50: 4.24 µM
SK-N-FI
  IC50: > 8 µM
SHP77
  IC50: > 8 µM
EOL1
  IC50: 0.333 µM
HCE-T
  IC50: > 8 µM
ATN-1
  IC50: > 8 µM
EW-16
  IC50: 1.68 µM
DEL
  IC50: 3.07 µM
LB831-BLC
  IC50: 1.02 µM
NCI-H2171
  IC50: > 8 µM
KNS-42
  IC50: > 8 µM
NCI-H1417
  IC50: > 8 µM
COLO-684
  IC50: 5.84 µM
L-428
  IC50: > 8 µM
SK-MEL-1
  IC50: > 8 µM
LB996-RCC
  IC50: 1.7 µM
RPMI-8866
  IC50: > 8 µM
MZ7-mel
  IC50: > 8 µM
ES8
  IC50: 5.98 µM
Mo
  IC50: 4.96 µM
KLE
  IC50: > 8 µM
COLO-829
  IC50: > 8 µM
J-RT3-T3-5
  IC50: 6.24 µM
GB-1
  IC50: 2.83 µM
HCC2218
  IC50: > 8 µM
NCI-H1304
  IC50: > 8 µM
SCC-15
  IC50: > 8 µM
LB2241-RCC
  IC50: 4.93 µM
OVCAR-4
  IC50: > 8 µM
SNU-C2B
  IC50: 1.84 µM
TGBC1TKB
  IC50: > 8 µM

## C=CC(=O)N1CCCC(Nc2nc(Nc3ccc(N(C)C(=O)CC)cc3)nc3[nH]cnc23)C1 (stereo not given)
CAS-1
  IC50: > 10.2 µM
697
  IC50: > 10.2 µM
SW872
  IC50: > 10.2 µM
KM12
  IC50: > 10.2 µM
KM-H2
  IC50: > 10.2 µM
D-502MG
  IC50: > 10.2 µM
KARPAS-299
  IC50: > 10.2 µM
LS-513
  IC50: > 10.2 µM
KGN
  IC50: > 10.2 µM
KARPAS-45
  IC50: > 10.2 µM
SK-UT-1
  IC50: > 10.2 µM
SW982
  IC50: > 10.2 µM
HCC2157
  IC50: > 10.2 µM
TE-5
  IC50: > 10.2 µM
SNU1
  IC50: > 10.2 µM
NEC8
  IC50: > 10.2 µM
SF-539
  IC50: > 10.2 µM
CCRF-CEM
  IC50: > 10.2 µM
MFM-223
  IC50: > 10.2 µM
KU812 cell line
  IC50: > 10.2 µM
SK-N-FI
  IC50: > 10.2 µM
SHP77
  IC50: > 10.2 µM
EOL1
  IC50: 4.4 µM
HCE-T
  IC50: > 10.2 µM
ATN-1
  IC50: > 10.2 µM
EW-16
  IC50: 2.59 µM
DEL
  IC50: > 10.2 µM
LB831-BLC
  IC50: 2.95 µM
NCI-H2171
  IC50: > 10.2 µM
KNS-42
  IC50: > 10.2 µM
NCI-H1417
  IC50: > 10.2 µM
COLO-684
  IC50: > 10.2 µM
L-428
  IC50: > 10.2 µM
SK-MEL-1
  IC50: > 10.2 µM
LB996-RCC
  IC50: > 10.2 µM
RPMI-8866
  IC50: > 10.2 µM
MZ7-mel
  IC50: > 10.2 µM
ES8
  IC50: > 10.2 µM
Mo
  IC50: > 10.2 µM
KLE
  IC50: > 10.2 µM
COLO-829
  IC50: > 10.2 µM
J-RT3-T3-5
  IC50: > 10.2 µM
GB-1
  IC50: > 10.2 µM
HCC2218
  IC50: > 10.2 µM
NCI-H1304
  IC50: > 10.2 µM
SCC-15
  IC50: > 10.2 µM
LB2241-RCC
  IC50: > 10.2 µM
OVCAR-4
  IC50: > 10.2 µM
SNU-C2B
  IC50: > 10.2 µM
TGBC1TKB
  IC50: > 10.2 µM
